From patent US20210198277A1, “AMINE-SUBSTITUTED ARYL OR HETEROARYL COMPOUNDS” (Epizyme, Inc., priority 2016, published 2021)

Biological target: T1, EHMT2 (Homo sapiens, UniProt Q96KQ7)
T1 construct: host or cells: MDA-MB-231
T1 sequence (Q96KQ7 1-1210): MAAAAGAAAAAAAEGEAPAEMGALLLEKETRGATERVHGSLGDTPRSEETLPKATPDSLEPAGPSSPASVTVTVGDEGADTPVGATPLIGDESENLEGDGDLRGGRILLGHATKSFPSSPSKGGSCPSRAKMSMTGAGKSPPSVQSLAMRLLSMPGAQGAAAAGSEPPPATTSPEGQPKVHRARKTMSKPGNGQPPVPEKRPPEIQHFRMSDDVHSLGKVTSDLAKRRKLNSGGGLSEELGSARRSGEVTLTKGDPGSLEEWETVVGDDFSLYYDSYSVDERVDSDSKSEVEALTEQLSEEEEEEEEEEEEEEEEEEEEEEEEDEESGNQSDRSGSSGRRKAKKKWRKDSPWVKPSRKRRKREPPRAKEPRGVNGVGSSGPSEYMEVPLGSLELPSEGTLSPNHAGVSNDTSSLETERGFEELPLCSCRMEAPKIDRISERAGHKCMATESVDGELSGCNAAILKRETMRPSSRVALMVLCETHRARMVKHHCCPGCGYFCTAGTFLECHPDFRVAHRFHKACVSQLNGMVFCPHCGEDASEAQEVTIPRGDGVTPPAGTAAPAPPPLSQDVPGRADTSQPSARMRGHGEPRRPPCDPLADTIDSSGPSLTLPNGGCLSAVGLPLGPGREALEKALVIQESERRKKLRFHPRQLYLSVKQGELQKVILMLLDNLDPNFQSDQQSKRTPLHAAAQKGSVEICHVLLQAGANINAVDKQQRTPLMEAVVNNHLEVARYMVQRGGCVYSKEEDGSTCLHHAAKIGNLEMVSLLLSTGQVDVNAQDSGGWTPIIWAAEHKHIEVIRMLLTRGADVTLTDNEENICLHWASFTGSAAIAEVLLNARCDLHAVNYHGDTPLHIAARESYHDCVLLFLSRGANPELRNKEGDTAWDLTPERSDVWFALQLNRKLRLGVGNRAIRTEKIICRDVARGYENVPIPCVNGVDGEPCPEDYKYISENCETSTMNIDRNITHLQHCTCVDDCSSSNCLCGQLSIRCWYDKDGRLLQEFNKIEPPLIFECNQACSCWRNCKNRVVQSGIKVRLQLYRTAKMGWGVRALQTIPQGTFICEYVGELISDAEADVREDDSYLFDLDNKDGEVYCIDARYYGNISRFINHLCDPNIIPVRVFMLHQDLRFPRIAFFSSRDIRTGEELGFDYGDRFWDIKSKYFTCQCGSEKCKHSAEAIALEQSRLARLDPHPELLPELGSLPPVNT
Assay: MDA-MB-231 H3K9me2 in-cell Western assay (EHMT2 ICW)
Assay type: cell-based
Conditions: Table II; MDA-MB-231 H3K9me2 in-cell Western; read-out: EHMT2 ICW (IC50 μM)
Outline: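 IC50 values came from a variable-slope four-parameter fit on triplicate wells, using % inhibition from the 800/700 nm infrared signal ratio (anti-H3K9me2 versus DRAQ5 DNA stain). Before fixation and immunostaining, MDA-MB-231 cells, 3,000 per well, were exposed to compound for 48 h at 37 °C.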

IC50	SMILES
> 10 µM	CNc1nc(Nc2ccc(OC)c(OCCCN3CCCC3)c2)ncc1C(F)(F)F [Compound 234]
> 10 µM	CNc1ncc(C(F)(F)F)c(Nc2ccc(OC)c(OCCCN3CCCC3)c2)n1 [Compound 235]
0.1 to 1 µM	CNc1nc(Nc2ccc(OC)c(OCCCN3CCCC3)c2)nc(C)c1F [Compound 236]
> 10 µM	CNc1ccnc(Nc2ccc(OC)c(OCCN3CCOCC3)c2)n1 [Compound 237]
> 10 µM	CNc1ccnc(Nc2ccc3c(c2)N(C(=O)CCN(C)C)CC3)n1 [Compound 239]
0.1 to 1 µM	CCc1cc(NC)nc(Nc2ccc(OC)c(OCCCN3CCCC3)c2)n1 [Compound 240]
> 10 µM	COc1ccc(Nc2nccc(CNC3CCOCC3)n2)cc1OCCCNc1ccccc1 [Compound 241]
> 10 µM	COc1ccc(Nc2cnnc(NCC3CCN(C(C)=O)CC3)c2)cc1OCCCN1CCCC1 [Compound 242]
> 10 µM	COc1ccc(Nc2nccc(NCC3CCOCC3)n2)cc1OC1CC2(C1)CN(C)C2 [Compound 243]
> 10 µM	CNc1ccnc(Nc2ccc(F)c(OCCCN3CCCC3)c2)n1 [Compound 244]
1 to 10 µM	COc1ccc(Nc2nccc(N)n2)cc1OCCCN1CCCC1 [Compound 245]
> 10 µM	CNc1cnnc(Nc2ccc(OC)c(OCCCN3CCCC3)c2)c1 [Compound 246]
1 to 10 µM	CNc1cncc(Nc2ccc(OC)c(OCCCN3CCCC3)c2)n1 [Compound 247]
0.1 to 1 µM	CNc1cc(Nc2cc(OCCCN3CCCC3)c(OC)cn2)ccn1 [Compound 248]
> 10 µM	COc1ccc(Nc2nccc3[nH]ncc23)cc1OCCCN1CCCC1 [Compound 249]
> 10 µM	COc1ccc(Nc2ccnc3[nH]ccc23)cc1OCCCN1CCCC1 [Compound 250]
> 10 µM	CC(C)Nc1ccnc(Nc2cccc(OCCCN3CC[C@@H](F)C3)c2)n1 [Compound 251]
1 to 10 µM	CNc1ccnc(Nc2cccc(OC[C@H](O)CN3CCCC3)c2)n1 [Compound 252]
> 10 µM	CNc1ccnc(Nc2cccc(OC[C@@H](O)CN3CCCC3)c2)n1 [Compound 253]
